22 compounds from patent publication US10221139B2, “Inhibitors of histone demethylases” (Gilead Sciences, Inc., priority 2012, dated 2019) can be followed below.

Where only a bound is given, the exact number is not on record here.

What all share (assay type): biochemical
One assay deals with T1, GASC1 (KDM4C, JMJD2C) (Homo sapiens, UniProt Q9H3R0).
T1 construct: 1-349; host or cells: E. coli
T1 sequence (Q9H3R0 1-349): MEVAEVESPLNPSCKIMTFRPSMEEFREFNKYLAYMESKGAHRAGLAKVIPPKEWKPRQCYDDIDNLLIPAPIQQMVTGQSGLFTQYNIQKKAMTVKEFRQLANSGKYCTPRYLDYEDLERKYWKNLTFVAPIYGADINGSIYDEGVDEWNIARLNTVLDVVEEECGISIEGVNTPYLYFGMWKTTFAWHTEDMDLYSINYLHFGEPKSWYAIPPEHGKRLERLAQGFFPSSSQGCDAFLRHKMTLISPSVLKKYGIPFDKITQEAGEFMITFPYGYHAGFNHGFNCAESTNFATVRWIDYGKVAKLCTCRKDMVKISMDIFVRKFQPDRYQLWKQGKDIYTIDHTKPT
The experiment in a line: Histone lysine demethylase AlphaLISA assay, GASC1. Conditions: substrate BK9M3. The procedure: (§1) Example 2: Histone Lysine Demethylase AlphaLISA Assays for IC50 Value Determination
(§2) Assays are performed analogously to the protocol described by Perkin Elmer (Roy et al. Perkin Elmer Technical Note: AlphaLISA #12, April 2011).
(§3) Enzymes are dissolved in enzyme buffer and incubated for 10 min before 5 μL is added to 5 μL 3% DMSO solutions of compounds in enzyme buffer. Incubated for another 10 minutes, before 5 μL substrate solution is added and the reaction mixture is incubated at room temperature for the given period. 10 μL acceptor beads, suspended at given dilutions in Epigenetic Buffer (Perkin Elmer AL008) from stock, are added and the suspension is incubated 60 minutes in the dark at room temperature, before 10 μL suspension (at the given dilutions in Epigenetic Buffer) of streptavidin donor beads (Perkin Elmer 6760002) in Epigenetic Buffer is added. After incubation at room temperature in the dark the plates are read. Reaction conditions are seen in Table 2b.
(In general: Bead proximity is the source of the signal in Alpha formats.)

In the next assay the target is T2, UTX (KDM6A) (Homo sapiens, UniProt O15550).
T2 construct: 919-1401; host or cells: E. coli
Nature of the assay: Histone lysine demethylase AlphaLISA assay, UTX. Conditions: substrate BK27M3. The procedure:
as §1, §2, §3

A further assay concerns the target T3, PLU1 (KDM5B) (Homo sapiens, UniProt Q9UGL1).
T3 construct: 1-809; host or cells: E. coli
T3 sequence (Q9UGL1 1-809): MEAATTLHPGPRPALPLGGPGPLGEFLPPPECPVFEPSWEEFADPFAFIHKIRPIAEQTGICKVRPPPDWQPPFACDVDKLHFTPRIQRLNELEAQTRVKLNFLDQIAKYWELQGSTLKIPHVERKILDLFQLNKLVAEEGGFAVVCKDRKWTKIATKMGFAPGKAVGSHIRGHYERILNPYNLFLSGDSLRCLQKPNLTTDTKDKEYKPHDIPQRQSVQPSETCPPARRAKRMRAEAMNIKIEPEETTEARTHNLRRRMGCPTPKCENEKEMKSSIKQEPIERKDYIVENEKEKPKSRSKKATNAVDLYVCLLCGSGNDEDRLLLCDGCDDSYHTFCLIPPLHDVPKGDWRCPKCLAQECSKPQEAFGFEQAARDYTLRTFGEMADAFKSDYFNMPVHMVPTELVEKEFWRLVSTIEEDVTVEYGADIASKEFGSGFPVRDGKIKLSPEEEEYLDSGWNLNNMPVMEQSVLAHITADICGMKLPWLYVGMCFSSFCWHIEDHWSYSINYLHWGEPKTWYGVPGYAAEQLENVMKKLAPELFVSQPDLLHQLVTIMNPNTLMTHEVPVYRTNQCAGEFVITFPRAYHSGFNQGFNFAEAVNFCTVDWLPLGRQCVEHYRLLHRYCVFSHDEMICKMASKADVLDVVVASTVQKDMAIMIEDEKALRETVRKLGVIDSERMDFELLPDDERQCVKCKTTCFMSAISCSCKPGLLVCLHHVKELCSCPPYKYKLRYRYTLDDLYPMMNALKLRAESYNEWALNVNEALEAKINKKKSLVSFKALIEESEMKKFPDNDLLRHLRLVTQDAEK
Nature of the assay: Histone lysine demethylase AlphaLISA assay, PLU1. The note with it: substrate H3K4M3B. The protocol: as §1, §2, §3

T2 sequence (O15550 919-1401): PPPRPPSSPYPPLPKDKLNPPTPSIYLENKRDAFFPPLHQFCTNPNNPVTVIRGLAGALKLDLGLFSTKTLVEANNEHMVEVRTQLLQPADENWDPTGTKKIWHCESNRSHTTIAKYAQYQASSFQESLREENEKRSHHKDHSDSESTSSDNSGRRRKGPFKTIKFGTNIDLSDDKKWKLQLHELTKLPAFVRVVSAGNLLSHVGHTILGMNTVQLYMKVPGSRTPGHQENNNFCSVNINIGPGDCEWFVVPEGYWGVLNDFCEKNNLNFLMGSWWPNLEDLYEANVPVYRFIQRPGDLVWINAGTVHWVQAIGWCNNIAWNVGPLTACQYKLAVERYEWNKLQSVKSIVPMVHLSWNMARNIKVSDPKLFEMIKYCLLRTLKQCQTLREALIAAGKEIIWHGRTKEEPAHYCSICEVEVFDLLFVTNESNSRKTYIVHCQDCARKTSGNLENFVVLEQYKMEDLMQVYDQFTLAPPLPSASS

For the compound “{4-[(ethoxycarbonyl)amino]phenyl}methyl 2-({[4-(diethylamino)butyl]amino}methyl)pyridine-4-carboxylate [#55]”, the IC50 (as a rule, the concentration at which inhibition is half-maximal) against GASC1 (KDM4C, JMJD2C) is 0.1 to 1 µM; against UTX (KDM6A) it was ≥ 1 µM; on PLU1 (KDM5B), < 0.1 µM.

Take `CCN(CC)CCCCNCc1cc(C(=O)Oc2c(OC)cccc2OC)ccn1` [#56, 2,6-dimethoxyphenyl 2-({[4-(diethylamino)butyl]amino}methyl)pyridine-4-carboxylate]: the IC50 against GASC1 (KDM4C, JMJD2C) is 0.1 to 1 µM; on UTX (KDM6A), ≥ 1 µM; at PLU1 (KDM5B), < 0.1 µM.

As to `C#CCN(C)Cc1cc(C(=O)O)ccn1` [#7, 2-{[methyl(prop-2-yn-1-yl)amino]methyl}pyridine-4-carboxylic acid], the half-inhibitory concentration (IC50) on GASC1 (KDM4C, JMJD2C) is 0.1 to 1 µM; at UTX (KDM6A), ≥ 1 µM; at PLU1 (KDM5B), 0.1 to 1 µM.

On to `O=C(CNCc1cc(C(=O)O)ccn1)NC1CCN(Cc2ccco2)CC1` [#31, 2-{[({[1-(furan-2-ylmethyl)piperidin-4-yl]carbamoyl}methyl)amino]methyl}pyridine-4-carboxylic acid], for which the IC50 on GASC1 (KDM4C, JMJD2C) was < 0.1 µM; on UTX (KDM6A) it was 0.1 to 1 µM; against PLU1 (KDM5B), < 0.1 µM.

Consider `CCN(CCN(C)C)C(=O)CNCc1cc(C(=O)OC(C)CCN(C)C(=O)C(F)(F)F)ccn1` (stereo not drawn) [#64, 4-(2,2,2-trifluoro-N-methylacetamido)butan-2-yl 2-{[({[2-(dimethylamino)ethyl](ethyl)carbamoyl}methyl)amino]methyl}pyridine-4-carboxylate], for which the IC50 against GASC1 (KDM4C, JMJD2C) was < 0.1 µM; on UTX (KDM6A) it was ≥ 1 µM; at PLU1 (KDM5B), 0.1 to 1 µM.

Take `CCN(CC)CCCCNCc1cc(C(=O)OCCN(C)C)ccn1` [#53, 2-(dimethylamino)ethyl 2-({[4-(diethylamino)butyl]amino}methyl)pyridine-4-carboxylate]: the IC50 is < 0.1 µM on GASC1 (KDM4C, JMJD2C); ≥ 1 µM at UTX (KDM6A); < 0.1 µM at PLU1 (KDM5B).

As to “4-methoxyphenyl 2-({[4-(diethylamino)butyl]amino}methyl)pyridine-4-carboxylate [#51]”, the IC50 on GASC1 (KDM4C, JMJD2C) is 0.1 to 1 µM; on UTX (KDM6A), ≥ 1 µM; against PLU1 (KDM5B) it was < 0.1 µM.

As to “2-[({2-[(2S)-1-benzylpyrrolidin-2-yl]ethyl}amino)methyl]pyridine-4-carboxylic acid [#45]”, the IC50 at GASC1 (KDM4C, JMJD2C) was < 0.1 µM; against UTX (KDM6A), ≥ 1 µM; against PLU1 (KDM5B), < 0.1 µM.

`CCOC(=O)N(C)c1ccc(COC(=O)c2ccnc(CNCCCCN(CC)CC)c2)cc1` [#60, {4-[(ethoxycarbonyl)(methyl)amino]phenyl}methyl 2-({[4-(diethylamino)butyl]amino}methyl)pyridine-4-carboxylate]: the IC50 was ≥ 1 µM at GASC1 (KDM4C, JMJD2C); < 0.1 µM against UTX (KDM6A); < 0.1 µM against PLU1 (KDM5B).

`O=C(CNCc1cc(C(=O)O)ccn1)NC1CCN(CCc2ccccc2)C1` (stereo not drawn) [#39, 2-{[({[1-(2-phenylethyl)pyrrolidin-3-yl]carbamoyl}methyl)amino]methyl}pyridine-4-carboxylic acid]: the IC50 against GASC1 (KDM4C, JMJD2C) was < 0.1 µM; on UTX (KDM6A) it was ≥ 1 µM; at PLU1 (KDM5B) it was < 0.1 µM.

Regarding `CC(C)CCNCc1cc(C(=O)O)ccn1` [#22, 2-{[(3-methylbutyl)amino]methyl}pyridine-4-carboxylic acid], the IC50 against GASC1 (KDM4C, JMJD2C) is 0.1 to 1 µM; on UTX (KDM6A), ≥ 1 µM; against PLU1 (KDM5B), 0.1 to 1 µM.

In the case of `CCN1CCCC1CNC(=O)CNCc1cc(C(=O)O)ccn1` (stereo not drawn) [#26, 2-{[({[(1-ethylpyrrolidin-2-yl)methyl]carbamoyl}methyl)amino]methyl}pyridine-4-carboxylic acid], the IC50 against GASC1 (KDM4C, JMJD2C) was < 0.1 µM; on UTX (KDM6A), ≥ 1 µM; on PLU1 (KDM5B) it was < 0.1 µM.

For `CCOC(=O)c1ccccc1OC(=O)c1ccnc(CNCC(=O)N(CC)CCN(C)C)c1` [#59, 2-(ethoxycarbonyl)phenyl 2-{[({[2-(dimethylamino)ethyl](ethyl)carbamoyl}methyl)amino]methyl}pyridine-4-carboxylate], the IC50 was < 0.1 µM at GASC1 (KDM4C, JMJD2C); < 0.1 µM against UTX (KDM6A); < 0.1 µM against PLU1 (KDM5B).

`O=C(O)c1ccnc(CNCC2CC2)c1` [#4, 2-{[(cyclopropylmethyl)amino]methyl}pyridine-4-carboxylic acid]: the IC50 against GASC1 (KDM4C, JMJD2C) is 0.1 to 1 µM; against UTX (KDM6A), ≥ 1 µM; against PLU1 (KDM5B), < 0.1 µM.

For the compound `O=C(O)c1ccnc(CNCCCN2CCC(Cc3ccccc3)CC2)c1` [#40, 2-({[3-(4-benzylpiperidin-1-yl)propyl]amino}methyl)pyridine-4-carboxylic acid], the IC50 against GASC1 (KDM4C, JMJD2C) is < 0.1 µM; against UTX (KDM6A), ≥ 1 µM; against PLU1 (KDM5B), < 0.1 µM.

For the compound `O=C(O)c1ccnc(CNCc2ccc(-c3ccccc3)o2)c1` [#10, 2-({[(5-phenylfuran-2-yl)methyl]amino}methyl)pyridine-4-carboxylic acid], the IC50 on GASC1 (KDM4C, JMJD2C) is ≥ 1 µM; at UTX (KDM6A) it was ≥ 1 µM; against PLU1 (KDM5B) it was 0.1 to 1 µM.

With `C=CC(CCN(C)C(=O)C(F)(F)F)OC(=O)c1ccnc(CNCC(=O)N(CC)CCN(C)C)c1` (stereo not drawn) [#67, 5-(2,2,2-trifluoro-N-methylacetamido)pent-1-en-3-yl 2-{[({[2-(dimethylamino)ethyl](ethyl)carbamoyl}methyl)amino]methyl}pyridine-4-carboxylate], the IC50 is 0.1 to 1 µM on GASC1 (KDM4C, JMJD2C); < 0.1 µM against UTX (KDM6A); 0.1 to 1 µM against PLU1 (KDM5B).

On to `O=C(O)c1ccnc(CNCC(=O)N2CCCC2Cc2ccccc2)c1` (stereo not drawn) [#43, 2-({[2-(2-benzylpyrrolidin-1-yl)-2-oxoethyl]amino}methyl)pyridine-4-carboxylic acid], for which the IC50 was < 0.1 µM at GASC1 (KDM4C, JMJD2C); ≥ 1 µM at UTX (KDM6A); < 0.1 µM against PLU1 (KDM5B).

In the case of `O=C(O)c1ccnc(CNCC(=O)N2CCCC(Cc3nc4ccccc4[nH]3)C2)c1` (stereo not drawn) [#38, 2-[({2-[3-(1H-1,3-benzodiazol-2-ylmethyl)piperidin-1-yl]-2-oxoethyl}amino)methyl]pyridine-4-carboxylic acid], the IC50 against GASC1 (KDM4C, JMJD2C) was < 0.1 µM; against UTX (KDM6A) it was ≥ 1 µM; on PLU1 (KDM5B), < 0.1 µM.

Take `CCCCCCCCCCCCCCCC(=O)OCC(COC(=O)c1ccnc(CNCC(=O)N(CC)CCN(C)C)c1)OC(=O)CCCCCCCCCCCCCCC` (stereo not drawn) [#69, 1-(2-{[({[2-(dimethylamino)ethyl](ethyl)carbamoyl}methyl)amino]methyl}pyridine-4-carbonyloxy)-3-(hexadecanoyloxy)propan-2-yl hexadecanoate]: the IC50 is 0.1 to 1 µM against GASC1 (KDM4C, JMJD2C); < 0.1 µM against UTX (KDM6A); 0.1 to 1 µM against PLU1 (KDM5B).

As for `CSCCNCc1cc(C(=O)O)ccn1` [#12, 2-({[2-(methylsulfanyl)ethyl]amino}methyl)pyridine-4-carboxylic acid], the IC50 against GASC1 (KDM4C, JMJD2C) is < 0.1 µM; against UTX (KDM6A) it was ≥ 1 µM; against PLU1 (KDM5B), < 0.1 µM.

On to `O=C(O)c1ccnc(CNCC(=O)N2CCC[C@@H]2CN2CCCC2)c1` [#18, 2-[({2-oxo-2-[(2R)-2-(pyrrolidin-1-ylmethyl)pyrrolidin-1-yl]ethyl}amino)methyl]pyridine-4-carboxylic acid], for which the IC50 is < 0.1 µM on GASC1 (KDM4C, JMJD2C); ≥ 1 µM against UTX (KDM6A); < 0.1 µM on PLU1 (KDM5B).
